Test system: melanoma patient PBMC samples WM35, WM3457 and 3451
Experiment: Proliferative response, 3HTdR incorporation assay with peptide-pulsed monocytes
Assay type: cell-based, human
Settings: monocytes pulsed 8 hours with 25 μM peptide, cultured with PBMC for 5 days; each sample assayed
Experimental: The peptides were screened for T-helper sequences (Th): Peptide P8 is amino acids residues 608-622 of BRAF, i.e., […] (SEQ ID NO: 15). Peptide P9 is amino acids residues […] of BRAF, i.e., […] (SEQ ID NO: 16). Peptide P10 is amino acids residues […] of BRAF, i.e., […] (SEQ ID NO: 17). These peptides bind to HLA-DR alleles using computer algorithms, as disclosed in Example 1 below. Proliferative responses were determined by standard ^3HTdR incorporation assay.
A number of such peptides were assayed as follows: Adherent monocytes (5×10^4/well) were pulsed for 8 hours with synthetic peptides (25 μM): Peptide 8 (SEQ ID NO:15), Peptide 9 (SEQ ID NO:16), and Peptide 10 (SEQ ID NO: 17). At the end of incubation, excess peptides were removed and the monocytes were cultured with one of three melanoma patient PBMC samples labeled WM35, WM3457 and 3451 (1×10^5) for 5 days.
Data are expressed as mean cpm (triplicate determinations) plus SD (bar) of ^3HTdR incorporation.

| Sequence | Proliferative response (3HTdR incorporation, mean cpm) versus control peptide |
| --- | --- |
| EDLTVKIGDFGLATV (listed as Homo sapiens) [Peptide 9] | Significantly (p<0.01) different values compared to control |
| SHQFEQLSGSILWHA (listed as Homo sapiens) [Peptide 8] | Significantly (p<0.01) different values compared to control |

Reference: patent publication US11208468B2, “Methods and compositions for treating melanoma” (The Wistar Institute of Anatomy and Biology, priority 2016, dated 2021)
